From patent US5747505A, “Heterocyclic aryl-, alkyl- and cycloalkylacetamides” (Bayer Aktiengesellschaft, priority 1995, dated 1998) come the findings set out here.

Where only a bound is given, the exact number is not on record here.

One may read the IC50 as the point on the concentration scale where inhibition reaches its midpoint. Lower therefore signals higher potency.

The test concerns release of ApoB-100-associated lipoproteins from HepG2 cells. The experiment in a line: Inhibition of the release of ApoB-100-associated lipoproteins from cultivated liver cells (HepG2), immunoassay for human LDL. As to conditions: substance concentration at which light absorption (450 nm) is inhibited by 50% vs solvent control. The format is cell-based. Here is the method: 1. Inhibition of the release of ApoB-100-associated lipopnoteins
The test for detecting the inhibition of the release of ApoB-100-associatedlipoproteins-from liver cells was carried out in vitro using cultivated liver cells, preferably using cells of the human line HepG2. These cells are grown under standard conditions in medium for the culture of eukaryotic cells, preferably in RPMI 1640 with 10% foetal calf serum. HepG2 cells synthesize and secrete into the culture supernatant ApoB-100-associated lipoprotein particles which in principle are constructed similarly to the VLDL and LDL particles which are to be found in the plasma.
These particles can be detected using an immunoassay for human LDL. This immunoassay is carried out using antibodies which have been induced against human LDL in the rabbit under standard conditions. The anti-LDL antibodies (rabbit anti-LDL Ab) were purified by affinity chromatography on an immunosorbent using human LDL. These purified rabbit anti-LDL Ab are adsorbed on the surface of plastic. Expediently, this adsorption takes place on the plastic surface of microtiter plates having 96 wells, preferably on MaxiSorp plates. If ApoB-100-associated particles are present in the supernatant of Hep-G2 cells, these can bind to the insolubilized rabbit anti-LDL Ab and an immune complex is formed which is bound to the plastic surface. Non-bound proteins are removed by washing. The immune complex on the plastic surface is detected using monoclonal antibodies which have been induced against human LDL and purified according to standard conditions. These antibodies were conjugated with the enzyme peroxidase. Peroxidase converts the colourless substrate TMB into a coloured product in the presence of H2 O2. After acidification of the reaction mixture with H2 SO4, the specific light absorption at 450 nm is determined, which is a measure of the amount of ApoB-100-associated particles which have been secreted into the culture supernatant by the HepG2 cells.
The IC50 value indicates at which substance concentration the light absorption is inhibited by 50% in comparison with the control (solvent control without substance).
As to `O=C(N[C@@H](CO)c1ccccc1)C(c1ccc(OCc2ccc3ccccc3n2)s1)C1CCCCCC1` (stereo partly drawn) [Example 1, 2-Cycloheptyl-N-(2-hydroxy-1(R)-phenylethyl)-2-[5-(quinoline-2-ylmethoxy)thiophen-2-yl]acetamide], the IC50 amounted to 195 nM. For `O=C(NCc1ccccc1)C(c1ccccc1)N1CCC(OCc2ccc3ccccc3n2)CC1` (stereo not shown) [Example 2], the IC50 is above 2000 nM. As to `O=C(N[C@@H](CO)c1ccccc1)C(c1ccc(OCc2ccccc2Cl)cn1)C1CCCCCC1` (stereo partly shown) [Example 3], the 50% inhibitory concentration (IC50) turned out to be 71 nM.

Compound `O=C(NCc1ccccc1)C(c1ccc(OCc2ccccc2Cl)cn1)C1CCCCCC1` (stereo not shown) [Example 4] yielded an IC50 of 11 nM. This IC50 lies about 6.5-fold lower than the previous one. In the case of `O=C(N[C@@H](CO)c1ccccc1)C(c1ccc(OCc2ccc3ccccc3n2)cn1)C1CCCC1` (stereo partly shown) [Example 5] it was 622 nM; in that of `O=C(N[C@@H](CO)c1ccccc1)C(c1ccc(OCc2ccc3ccccc3n2)cn1)C1CCCCCC1` (stereo partly shown) [Example 6], 255 nM; in that of `O=C(N[C@@H](CO)c1ccccc1)C(c1ccc2cc(OCc3ccc4ccccc4n3)ccc2c1)C1CCCC1` (stereo partly shown) [Example 8], 1880 nM. `O=C(NCC1CCCCC1)C(c1ccc2cc(OCc3ccc4ccccc4n3)ccc2c1)C1CCCC1` (stereo not shown) [Example 9] yielded an IC50 above 2000 nM. In the case of `COc1cc(CNC(=O)C(c2ccc3cc(OCc4ccc5ccccc5n4)ccc3c2)C2CCCC2)ccc1O` (stereo not shown) [Example 10] it was above 2000 nM. Turning to `O=C(N[C@H](CO)c1ccccc1)C(c1ccc2cc(OCc3ccc4ccccc4n3)ccc2c1)C1CCCC1` (stereo partly shown) [Example 11], the IC50 was above 2000 nM. Consider `Cc1ccc(CNC(=O)C(c2ccc3cc(OCc4ccc5ccccc5n4)ccc3c2)C2CCCC2)cc1` (stereo not shown) [Example 12], for which the IC50 is above 2000 nM.

`O=C(N[C@@H](CO)c1ccccc1)[C@H](c1ccc(OCc2ccc3ccccc3n2)cn1)C1CCCCCC1` [Example 13] displayed an IC50 of 235 nM. The compound `O=C(N[C@@H](CO)c1ccccc1)[C@@H](c1ccc(OCc2ccc3ccccc3n2)cn1)C1CCCCCC1` [Example 14] returned an IC50 of 235 nM.
